What was measured:
C2C12 myotubes [1] = experiment: NR uptake in C2C12 myotubes; format: in vitro ADME
SIRT1 = SIRT1 activity (FOXO1 acetylation, target genes) in NR-treated HEK293T cells; format: cell-based, human
Protocol: mRNA and mtDNA Analysis. Total RNA was prepared using TRIzol (Invitrogen) according to the manufacturer's instructions. RNA was treated with DNase, and 2 μg of RNA was used for reverse transcription (RT). cDNA was purified on QIAquick PCR cleanup columns (Qiagen, Valencia, Calif., USA). 50× diluted cDNA was used for RT-quantitative PCR (RT-VCR) VCR) reactions (Bai et al., 2007). The RT-qPCR reactions were performed using the Light-Cycler system (Roche Applied Science) and a qPCR Supermix (Qiagen) with the primers for mice summarized in Table 1 and 4, and with the primers for worms summarized on Table 7. mtDNA quantification was performed as described (Lagouge et al., 2006) with the primers indicated in Table 2 and 5.
Immunoprecipitation, SDS-PAGE, Western Blotting. Cells were lysed in lysis buffer (50 mM Tris, […], EDTA 1 mM, NP40 1%, nicotinamide 5 mM, Na-butyrate 1 in M, protease inhibitors pH7.4). Proteins were separated by SDS-PAGE and transferred onto nitrocellulose membranes. The origin of the primary and secondary antibodies used can be found as supplemental experimental procedures. Reactions were developed by enhanced chemiluminescence (Amersham, Little Chalfont, UK), PGC-1α, FOXO1 and Ndufa9 acetylation levels were analyzed by immunoprecipitation from cellular or nuclear lysates of tissues with anti-PGC-1α (Millipore), anti-FOXO1 (Cell Signaling, Danvers, Mass., USA) and anti-Ndufa9 (Abcam) antibody followed by Western blot using an acetyl-lysine antibody (Cell Signaling) that was normalized to total PGC-1a/FOXO1/Ndufa9 levels (Lagouge et al., 2006; Rodgers et al., 2005). In HEK293T cells HA-tagged PGC-1α was overexpressed and was immunoprecipitated using an anti-HA. In C2C12 myotubes, FLAG-HA tagged PGC-1α was introduced through adenoviral delivery 2 days before treatments, then IP was performed using anti-FLAG antibody and samples were processed as described. All blots were quantified by densitometry using ImageJ software. Poly(ADP-Ribose) detection was performed as previously described with slight modifications (Bai et al., PARP-1 inhibition increases mitochondrial metabolism through SIRT1 activation. Cell Metab 13, 461-468. (2011)) Briefly, PAR was detected by using a monoclonal anti-PAR antibody (Alexis, Lausanne Switzerland) by Western blotting of total protein lysates, using either […] of total worm protein lysates, […] of liver protein lysate or 200 g of muscle total protein extracts. PGC-1 acetylation was determined using PGC-1 immunoprecipitates from 2 mg of protein extracts, as described in Canto et al. (Canto et al., AMPK regulates energy expenditure by modulating NAD+ metabolism and SIRT1 activity. Nature 458, 1056 (2009)).

C2C12 myotubes [2] = experiment: Intracellular NAD+ content in C2C12 myotubes treated with PARP inhibitors; format: cell-based; design: intracellular NAD+ over time / H2O2-induced NAD+ depletion: dose or concentration left out as unconfirmed
Protocol: Cell Culture, Transfection, Adenoviral Infection and Mitochondrial Characterization. HEK293T, MEF and C2C12 cells were cultured in DMEM (4.5 g/l glucose, 10% FCS). PARP-1^+/+ and PARP-1^−/− MEFs were prepared as described in (Menissier-de Murcia et al., 1997). SIRT1 and MEFs were kindly provided by Fred Alt (Chea et al., 2005). SIRT3 MER were established according to standard techniques from conditional SERT3^−/− mice. (Picard, F., Gehin, M., Annicotte, J., Rocchi, S., Champy, M. F., O'Malley, B. W., Chambon, P., and Auwerx, J. (2002). SRC-1 and TIF2 control energy balance between white and brown adipose tissues. Cell 111, 931-941.) Deletion of the SIRT3 gene was induced via infection with adenovirus encoding for the Cre recombinase. HEK293T cells were transfected using JetPei reagent (Polyplus Transfections, Illkirch, France) according to the manufacturer's instructions. C2C12 cells were differentiated in DMEM (4.5 g/L glucose, 2% horse serum) after reaching confluency for 2 days, followed by 2 days of PJ34 treatment (10 μM). PARP-1 shRNA constructs were described in (Shah et al., 2005). Human PARP-1 and siRNAs were obtained from Dharmacon (Thermo Scientific). The adenovirus encoding for FLAG-HA-PGC-1α, control and SIRT1 shRNAs were a kind gift from Pere Puigserver and were used (MOI=100) in C2C12 myotubes as described (Canto et al., 2009). Mitochondrial charge determination was performed as described (Bai et al., 2001) and DNA strand breaks were quantified by TUNEL assays according to the manufacturer's instructions (Millipore).
NAD^+ NAM Determination. NAD^+ levels in cultured cells were determined using a commercial kit (Enzychrom™, BioAssays Systems, CA). For tissue samples NAD^+ and NAM levels were determined as described in (Sauve et al., 2005). In brief, to a weighed aliquot of frozen pulverized tissue we added as standards, ^18O-NAD^+ (typically 2.00 nmol) and ^18O-NAM (typically 2.00 nmol). 70 L of ice-cold 7% perchloric acid was then added and the sample was vortexed and sonicated three times, then centrifuged. Clear supernatant was removed and neutralized by additions of 3 M NaOH and 1 M phosphate buffer (pH=9), then centrifuged. Clear supernatant was injected onto HPLC C-18 column with 20 mM ammonium acetate eluent to separate NAD^+ and NAM from other cellular components, NAD^+ and NAM peaks (260 nm absorbance) were collected. Collections were lyophilized to dryness and subjected to MALDI-TOF analysis. For NAD^+ measurement, ratio of intensities for m/z=664 and 666 peaks, corresponding to ^16O- and ^18O-NAD^+ isotopomers, was multiplied by 2.00 nmol and then divided by tissue weight to determine NAD+ concentration in the sample. For NAM the ratio of intensities for m/z=123 and 125 peaks, corresponding to ^16O- and ^18O-NAM isotopomers, was multiplied by 2.00 nmol and then divided by tissue weight to determine NAM concentration in the sample. Corrections were applied for isotopic abundance. Other NAD metabolites were determined as previously described (Yang and Sauve, Synthesis of nictotinamide riboside and derivatives: effective agents for increasing nictinomide adenine dinucleotide concentrations in mammalian cells. J Med Chem 50, 6458-6461 (2006)).

Row | Km (C2C12 myotubes [1]) [µM] | Compound | Vmax of NR uptake (C2C12 myotubes [1]) | expression of FOXO1 target genes (Gadd45, Catalase, Sod1, Sod2) (SIRT1) | Sod2 expression (SIRT1; 0.5 mM, 24 hrs) | Ucp2 mRNA levels (SIRT1; 0.5 mM, 24 hrs) | Ucp2 expression with Sirt1 knock-down (SIRT1; 0.5 mM, 24 hrs, SIRT1 siRNAs) | intracellular NAD+ content with SIRT1 knock-down (SIRT1; 0.5 mM, 24 hrs, SIRT1 siRNAs) | Sod2 expression with Foxo1 or Sirt1 knockdown (SIRT1; 0.5 mM, 24 hrs, siRNAs) | SIRT1 protein levels (SIRT1; 24 hrs) | acetylation of FOXO1 (SIRT1; 24 hrs, SIRT1-dependent) | intracellular NAD+ at 24 hrs, dose dependence (C2C12 myotubes [2]; 24 hrs (FIG. 6F)) | intracellular NAD+ content (C2C12 myotubes [2]; 24 hrs, 1 mM (FIG. 13B)) | intracellular NAD+ during H2O2 treatment (C2C12 myotubes [2]; H2O2 500 μM, 6 hrs, PJ34 1 μM) | H2O2-induced NAD+ depletion (C2C12 myotubes [2]; PJ34 24 hrs, H2O2 1 hr (FIG. 13B)) | intracellular NAD+ over time (C2C12 myotubes [2]; PJ34 for the times indicated (FIG. 6D))
1 | 172 ± 17.6 | NC(=O)c1ccc[n+]([C@@H]2O[C@H](CO)[C@@H](O)[C@H]2O)c1 [NR, nicotinamide riboside] | 204.2±20.5 pmol/mg of protein/min | higher expression of target genes | higher expression of a FOXO1 target gene, Sod2 | decreased Ucp2 mRNA levels | knocking down Sirt1 prevented the action of NR on Ucp2 expression | did not compromise the ability of NR to increase intracellular NAD^+ content | prevented by the knockdown of either Foxo1 or Sirt1 | lack of changes in SIRT1 protein levels | dose-dependently decreased the acetylation of FOXO1 |  |  |  |  | 
2 |  | CN(C)CC(=O)Nc1ccc2[nH]c(=O)c3ccccc3c2c1 [PJ34] |  |  |  |  |  |  |  |  |  | dose dependent manner | leads to increased intracellular content | prevented the decrease in intracellular NAD^+ | global inhibition of PARP activity with PJ34 did | gradual increase in NAD^+, becoming significant 24 hrs after the initiation of the treatment
